Source: US20200289144A1, “DEVICE, METHOD AND FORMULATION FOR CHEMICALLY ASSISTED DISSECTION” (priority 2016, published 2020)

Tests used:
human MRC-5 fibroblasts [1] = assay: Qualitative evaluation of cytotoxicity by microscopic examination; settings: mean ± SD of scores
Procedure: In vitro cytotoxicity of Mesna in human MRC-5 fibroblasts was evaluated. Two experiments were performed. The first one was performed with two doses of Mesna (5% and 10%) and NaCl (7.06 and 3.53%) and the second one was performed with three doses of Mesna (5, 10 and 20%) and the three corresponding doses of NaCl (7.06, 3.53 and 1.76%). All samples were assayed in triplicate. Evaluation of cytotoxicity was evaluated after the following times: T15 min, T30 min, T1h, T2h, T4h, T8h and T24h.
Cells were thawed according to the standard operating procedure No. TEC-005 and subcultured according to the standard operating procedure No. TEC-001. The cell line was cultured in 75 cm^2-flasks in appropriated culture medium.
A score was assigned based on observations.

human MRC-5 fibroblasts [2] = assay: Quantitative evaluation of cytotoxicity, viability assay using MU reagent; assay type: cell-based; settings: for cytotoxicity (percentage of viability below 70% compared to culture medium): result in words
Procedure: Two experiments were performed. […] All samples were assayed in triplicate.
The cytotoxicity is defined by a viability of a test substance below 70% in compartion to culture medium.

[3] = Mesna purity before and after sterilization using X-rays and gamma irradiation; assay type: physicochemical
Source text: Mesna purity has been evaluated prior and after sterilization using X-rays and gamma irradiation.

Structure (SMILES)	cytotoxicity score (microscopic examination) (human MRC-5 fibroblasts [1]; 15 min exposure)	cytotoxicity score (microscopic examination) (human MRC-5 fibroblasts [1]; 30 min exposure)	cytotoxicity score (microscopic examination) (human MRC-5 fibroblasts [1]; 1 h exposure)	cytotoxicity score (microscopic examination) (human MRC-5 fibroblasts [1]; 2 h exposure)	cytotoxicity score (microscopic examination) (human MRC-5 fibroblasts [1]; 4 h exposure)	cytotoxicity score (microscopic examination) (human MRC-5 fibroblasts [1]; 8 h exposure)	cytotoxicity score (microscopic examination) (human MRC-5 fibroblasts [1]; 24 h exposure)	percentage of cell viability compared to culture medium (100% of viability) (human MRC-5 fibroblasts [2]; 15 min (0.25 h) exposure) [%]	percentage of cell viability compared to culture medium (100% of viability) (human MRC-5 fibroblasts [2]; 30 min (0.5 h) exposure) [%]	percentage of cell viability compared to culture medium (100% of viability) (human MRC-5 fibroblasts [2]; 1 h exposure) [%]	percentage of cell viability compared to culture medium (100% of viability) (human MRC-5 fibroblasts [2]; 2 h exposure) [%]	percentage of cell viability compared to culture medium (100% of viability) (human MRC-5 fibroblasts [2]; 4 h exposure) [%]	percentage of cell viability compared to culture medium (100% of viability) (human MRC-5 fibroblasts [2]; 8 h exposure) [%]	percentage of cell viability compared to culture medium (100% of viability) (human MRC-5 fibroblasts [2]; 24 h exposure) [%]	Mesna purity ([3]; After X-ray irradiation)	Mesna purity ([3]; After gamma irradiation)	Mesna purity ([3]; Prior irradiation)	cytotoxicity (percentage of viability below 70% compared to culture medium) (human MRC-5 fibroblasts [2])
[Cl-].[Na+] [NaCl 7.06%, NaCl]	0.0 ± 0.0	0.5 ± 0.7	2.5 ± 0.7	3.0 ± 0.0	3.0 ± 0.0	3.0 ± 0.0	4 ± 0	45.2	25.3	12.7	12.3	10.8	14.6	7.3				
O=S(=O)([O-])CCS.[Na+] [Mesna 10%, Sodium 2-mercaptoethanesulfonate]	0.0 ± 0.0	0.0 ± 0.0	1.0 ± 0.0	3.0 ± 0.0	3.0 ± 0.0	3.0 ± 0.0	4 ± 0	62.3	54.8	20.6	4.1	3.2	3.3	1.1				
O=S(=O)([O-])CCS.[Na+] [Mesna 20%, Sodium 2-mercaptoethanesulfonate]	0.0	1.0	2.0	3.0	3.0	3.0	4.0	−10.2	−1.2	47.2	11.8	4.6	12.1	18.3				
O=S(=O)([O-])CCS.[Na+] [Mesna 5%, Sodium 2-mercaptoethanesulfonate]	0.0 ± 0.0	1.5 ± 0.7	1.5 ± 0.7	3.0 ± 0.0	3.0 ± 0.0	3.0 ± 0.0	4 ± 0	66	47.6	50.4	39.7	12	3.4	1.4				
O=S(=O)([O-])CCS.[Na+] [Pure lyophilized Mesna, Sodium 2-mercaptoethanesulfonate]															89.3	89.1	89.4	
O=S(=O)([O-])CCS.[Na+] [Mesna powder, Sodium 2-mercaptoethanesulfonate]															89.0	88.9	89.6	
[Cl-].[Na+] [NaCl 1.76%, NaCl]	0.0	0.0	1.0	2.0	3.0	3.0	4.0	88.8	102.6	95	75.5	44	23.1	8				not cytotoxic after 2 hours
[Cl-].[Na+] [NaCl 3.53%, NaCl]	0.0 ± 0.0	0.0 ± 0.0	2 ± 1.4	3.0 ± 0.0	3.0 ± 0.0	3.0 ± 0.0	4 ± 0	82.7	55.4	16.3	12.7	10.5	14.4	7.2				
Oc1ccccc1 [Phenol 0.5%, Phenol]	3.0 ± 0.0	3.0 ± 0.0	3.0 ± 0.0	3.0 ± 0.0	3.0 ± 0.0	3.0 ± 0.0	4.0 ± 0.0	10.9	13.2	11.3	13.6	10.4	14.2	8.5				observed at all time points
